Assay results: the supplement of paper PMC11208160
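Note: IS621 recombinase and bridge RNA in Escherichia coli cells.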

Assay: recombinant barcode read abundance after kanamycin selection (control-corrected) (log10(CPM+1)); higher = more efficient recombination; sequences stand for … in AGTGCAGAGAAAATCGGCCAGTTTTCTCTGCCTGCAGTCCGCATGCCGT…AGATTTATGCAGCGGACTGCCTTTCTCCCAAAGTGATAAACCGGACAGTATCATGGACCGGTTTTCCCGGTAATCCGTATTTGCAAGGTTGGTTTCACT; site = the 11-nt target
Procedure: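 Pooled E. coli target-specificity screen for the IS621 bridge recombinase. Each library plasmid pairs an 11-nt target (CT core) with a bridge RNA whose target-binding loop (9-nt LTG + 4-nt RTG) is reprogrammed; the rest of the 177-nt WT IS621 bridge RNA scaffold is fixed. The plasmid is co-electroporated with a WT donor plasmid; recombinase is induced with 0.1 mM IPTG and recombinants are selected on kanamycin. Recombinant barcodes are sequenced, converted to CPM, averaged over two biological replicates and corrected by the unselected control CPM. Molecule = full bridge RNA written as DNA: LTG = specificity nt 1-9, RTG = reverse complement of specificity nt 8-11, in the WT scaffold.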
For “AACATGCCTTGGGTTCTAACCTGTTGCTT (site AACAAGCCTCA)”, the “recombinant barcode read abundance (log10)” value was 0.233. With “AACATGCCTTGGGTTCTAACCTGTTGCTT (site AACATGCCTAA)” the “recombinant barcode read abundance (log10)” value was 0.478. For “AACCAGCCTTGGGTTCTAACCTGTTGCCT (site AACCAGCCTAG)”, the “recombinant barcode read abundance (log10)” value was 1.33. With “AACCAGCCTTGGGTTCTAACCTGTTGCCT (site AACCATCCTAG)” the “recombinant barcode read abundance (log10)” value was 0. With “AACCAGTCTTGGGTTCTAACCTGTTGCGA (site AACCAGTCTTC)” the “recombinant barcode read abundance (log10)” value was 1.38. In the case of “AACCAGTCTTGGGTTCTAACCTGTTGCGA (site AACTAGTCTTA)”, the “recombinant barcode read abundance (log10)” value is reported as 0.0824. With “AACGCTCCTTGGGTTCTAACCTGTTGCCT (site AACGCTCCTAG)” the “recombinant barcode read abundance (log10)” value was 0.102. For “AACGCTCCTTGGGTTCTAACCTGTTGCCT (site ACCGCTCCTAG)”, the “recombinant barcode read abundance (log10)” value was 0. For “AACGCTCCTTGGGTTCTAACCTGTTGCCT (site AGCGCTCCTAG)”, the “recombinant barcode read abundance (log10)” value was 0.833. With “AACGCTCCTTGGGTTCTAACCTGTTGCCT (site ATCGCTCCTAG)” the “recombinant barcode read abundance (log10)” value was 0.239. With “AACGCTCCTTGGGTTCTAACCTGTTGCGG (site AACGCTCCTCC)” the “recombinant barcode read abundance (log10)” value was 0.503. For “AACGCTCCTTGGGTTCTAACCTGTTGCGG (site CACGGTCCTCC)”, the “recombinant barcode read abundance (log10)” value was 0.0943. In the case of “AACTAAGCTTGGGTTCTAACCTGTTGCCT (site AACTAAGCTAG)”, the “recombinant barcode read abundance (log10)” value is reported as 0.336. For “AACTAAGCTTGGGTTCTAACCTGTTGCCT (site GGAAGCCCTTA)”, the “recombinant barcode read abundance (log10)” value was 0.325. In the case of “AACTCAACTTGGGTTCTAACCTGTTGCCT (site AACTAAACTAG)”, the “recombinant barcode read abundance (log10)” value is reported as 0.108. In the case of “AACTCAACTTGGGTTCTAACCTGTTGCCT (site AACTCAACTAG)”, the “recombinant barcode read abundance (log10)” value is reported as 0.288. With “AACTCAACTTGGGTTCTAACCTGTTGCCT (site AACTGAACTAG)” the “recombinant barcode read abundance (log10)” value was 0.18. For “AACTCAACTTGGGTTCTAACCTGTTGCCT (site AACTTAACTAG)”, the “recombinant barcode read abundance (log10)” value was 0.107. In the case of “AAGAAAGCTTGGGTTCTAACCTGTTGCCT (site AAGAAAGCTAG)”, the “recombinant barcode read abundance (log10)” value is reported as 1.82. With “AAGAAAGCTTGGGTTCTAACCTGTTGCCT (site AAGACAGCTAG)” the “recombinant barcode read abundance (log10)” value was 0.0854. With “AAGAAAGCTTGGGTTCTAACCTGTTGCCT (site AAGAGAGCTAG)” the “recombinant barcode read abundance (log10)” value was 0.113. With “AAGAAAGCTTGGGTTCTAACCTGTTGCCT (site AAGATAGCTAG)” the “recombinant barcode read abundance (log10)” value was 0.464. In the case of “AAGACCTCTTGGGTTCTAACCTGTTGCCT (site AAGACCTCTAG)”, the “recombinant barcode read abundance (log10)” value is reported as 1.67. In the case of “AAGACCTCTTGGGTTCTAACCTGTTGCCT (site TAGACCTCTAG)”, the “recombinant barcode read abundance (log10)” value is reported as 1.29. For “AAGATACCTTGGGTTCTAACCTGTTGCCT (site AAGATACCTAG)”, the “recombinant barcode read abundance (log10)” value was 2.23. For “AAGATACCTTGGGTTCTAACCTGTTGCCT (site ATGATACCTAG)”, the “recombinant barcode read abundance (log10)” value was 0.0427. With “AAGCACTCTTGGGTTCTAACCTGTTGCCT (site AAGCAATCTAG)” the “recombinant barcode read abundance (log10)” value was 0.195. For “AAGCACTCTTGGGTTCTAACCTGTTGCCT (site AAGCACTCTAG)”, the “recombinant barcode read abundance (log10)” value was 2.58. In the case of “AAGCACTCTTGGGTTCTAACCTGTTGCCT (site AAGCAGTCTAG)”, the “recombinant barcode read abundance (log10)” value is reported as 0.107. For “AAGCACTCTTGGGTTCTAACCTGTTGCCT (site AAGCATTCTAG)”, the “recombinant barcode read abundance (log10)” value was 0. With “AAGCAGTCTTGGGTTCTAACCTGTTGCCT (site AAGCAATCTAG)” the “recombinant barcode read abundance (log10)” value was 0.44. With “AAGCAGTCTTGGGTTCTAACCTGTTGCCT (site AAGCACTCTAG)” the “recombinant barcode read abundance (log10)” value was 0.206. In the case of “AAGCAGTCTTGGGTTCTAACCTGTTGCCT (site AAGCAGTCTAG)”, the “recombinant barcode read abundance (log10)” value is reported as 2.5. With “AAGCAGTCTTGGGTTCTAACCTGTTGCCT (site AAGCATTCTAG)” the “recombinant barcode read abundance (log10)” value was 0.162. With “AAGCATCCTTGGGTTCTAACCTGTTGCCT (site AAGCATCCTAG)” the “recombinant barcode read abundance (log10)” value was 1.07. In the case of “AAGCATCCTTGGGTTCTAACCTGTTGCCT (site ACGCATCCTAG)”, the “recombinant barcode read abundance (log10)” value is reported as 0.192. In the case of “AAGCATCCTTGGGTTCTAACCTGTTGCCT (site AGGCATCCTAG)”, the “recombinant barcode read abundance (log10)” value is reported as 0.358. For “AAGCATCCTTGGGTTCTAACCTGTTGCCT (site ATGCATCCTAG)”, the “recombinant barcode read abundance (log10)” value was 0.00873. For “AAGCATTCTTGGGTTCTAACCTGTTGCCT (site AAGCAATCTAG)”, the “recombinant barcode read abundance (log10)” value was 0.379. For “AAGCATTCTTGGGTTCTAACCTGTTGCCT (site AAGCACTCTAG)”, the “recombinant barcode read abundance (log10)” value was 0.111. With “AAGCATTCTTGGGTTCTAACCTGTTGCCT (site AAGCAGTCTAG)” the “recombinant barcode read abundance (log10)” value was 0.254. In the case of “AAGCATTCTTGGGTTCTAACCTGTTGCCT (site AAGCATTCTAG)”, the “recombinant barcode read abundance (log10)” value is reported as 1.81. For “AAGCGCTCTTGGGTTCTAACCTGTTGCTG (site AAGCGCTCTCA)”, the “recombinant barcode read abundance (log10)” value was 2.39. For “AAGCGCTCTTGGGTTCTAACCTGTTGCTG (site TTCTATGCTAC)”, the “recombinant barcode read abundance (log10)” value was 0.542. For “AAGCGTACTTGGGTTCTAACCTGTTGCCT (site AAGCGTACTAG)”, the “recombinant barcode read abundance (log10)” value was 1.92. For “AAGCGTACTTGGGTTCTAACCTGTTGCCT (site AAGCGTCCTAG)”, the “recombinant barcode read abundance (log10)” value was 0.141. In the case of “AAGCGTACTTGGGTTCTAACCTGTTGCCT (site AAGCGTGCTAG)”, the “recombinant barcode read abundance (log10)” value is reported as 0.0421. With “AAGCGTACTTGGGTTCTAACCTGTTGCCT (site AAGCGTTCTAG)” the “recombinant barcode read abundance (log10)” value was 0.128. With “AAGCGTGCTTGGGTTCTAACCTGTTGCCT (site AAGCGTACTAG)” the “recombinant barcode read abundance (log10)” value was 1.38. For “AAGCGTGCTTGGGTTCTAACCTGTTGCCT (site AAGCGTCCTAG)”, the “recombinant barcode read abundance (log10)” value was 0.197. With “AAGCGTGCTTGGGTTCTAACCTGTTGCCT (site AAGCGTGCTAG)” the “recombinant barcode read abundance (log10)” value was 1.7. In the case of “AAGCGTGCTTGGGTTCTAACCTGTTGCCT (site AAGCGTTCTAG)”, the “recombinant barcode read abundance (log10)” value is reported as 0.216. With “AAGCGTTCTTGGGTTCTAACCTGTTGCCT (site AAGCGTACTAG)” the “recombinant barcode read abundance (log10)” value was 0.0209. In the case of “AAGCGTTCTTGGGTTCTAACCTGTTGCCT (site AAGCGTCCTAG)”, the “recombinant barcode read abundance (log10)” value is reported as 0.111. In the case of “AAGCGTTCTTGGGTTCTAACCTGTTGCCT (site AAGCGTGCTAG)”, the “recombinant barcode read abundance (log10)” value is reported as 0.0909. In the case of “AAGCGTTCTTGGGTTCTAACCTGTTGCCT (site AAGCGTTCTAG)”, the “recombinant barcode read abundance (log10)” value is reported as 1.54. For “AAGCTGCCTTGGGTTCTAACCTGTTGCCT (site AAGCTGCCTAG)”, the “recombinant barcode read abundance (log10)” value was 1.49. With “AAGCTGCCTTGGGTTCTAACCTGTTGCCT (site GAGCTGCCTAA)” the “recombinant barcode read abundance (log10)” value was 0.049. With “AAGGAACCTTGGGTTCTAACCTGTTGCCT (site AAGGAACCTAG)” the “recombinant barcode read abundance (log10)” value was 2.59. In the case of “AAGGAACCTTGGGTTCTAACCTGTTGCCT (site CAGGAACCTAG)”, the “recombinant barcode read abundance (log10)” value is reported as 1.23. With “AAGGAACCTTGGGTTCTAACCTGTTGCCT (site GAGGAACCTAG)” the “recombinant barcode read abundance (log10)” value was 0.951. For “AAGGAACCTTGGGTTCTAACCTGTTGCCT (site TAGGAACCTAG)”, the “recombinant barcode read abundance (log10)” value was 2.11. In the case of “AAGGAGACTTGGGTTCTAACCTGTTGCCT (site AAAGGGACTAG)”, the “recombinant barcode read abundance (log10)” value is reported as 0.116. For “AAGGAGACTTGGGTTCTAACCTGTTGCCT (site AAGGAGACTAG)”, the “recombinant barcode read abundance (log10)” value was 2.12. For “AAGGCTTCTTGGGTTCTAACCTGTTGCCT (site AAGGCTACTAG)”, the “recombinant barcode read abundance (log10)” value was 0.171. With “AAGGCTTCTTGGGTTCTAACCTGTTGCCT (site AAGGCTTCTAG)” the “recombinant barcode read abundance (log10)” value was 1.4.
